Key:
[1] = target: T1, CYP83B1 (Arabidopsis thaliana, UniProt O65782); experiment: Kinetics of indole-3-acetaldoxime metabolism by recombinant enzyme in yeast microsomes
T1 sequence (O65782 1-499): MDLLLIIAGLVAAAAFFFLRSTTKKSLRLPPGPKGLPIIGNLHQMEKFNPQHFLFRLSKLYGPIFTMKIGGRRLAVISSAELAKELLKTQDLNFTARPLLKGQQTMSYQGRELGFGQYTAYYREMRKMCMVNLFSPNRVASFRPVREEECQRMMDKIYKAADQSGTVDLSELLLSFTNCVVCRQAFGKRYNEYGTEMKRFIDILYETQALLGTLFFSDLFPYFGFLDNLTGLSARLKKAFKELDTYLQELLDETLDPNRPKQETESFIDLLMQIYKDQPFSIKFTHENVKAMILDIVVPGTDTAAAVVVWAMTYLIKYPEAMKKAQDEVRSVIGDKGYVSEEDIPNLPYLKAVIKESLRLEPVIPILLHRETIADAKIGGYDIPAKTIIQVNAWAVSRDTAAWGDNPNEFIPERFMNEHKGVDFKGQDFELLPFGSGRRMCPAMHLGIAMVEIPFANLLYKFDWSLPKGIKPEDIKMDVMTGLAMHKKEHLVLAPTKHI
Experimental: Computed regression curves as well as the experimental data points are shown. The correlation coefficients (R^2) for CYP83B1 and CYP83A1 regression analyses are 0.985 and 0.999, respectively.
(§1) Microsomes from yeast WAT11 cells expressing the CYP83A1 and CYP83B1 cDNA using the pYeDP60 vector were isolated and the amount of functional enzyme quantified essentially according to Pompon et al. (1996) Methods Enzymol. 272:51-64. […] 13:101-111 and references therein. Vmax and Km were determined as previously described using 2.2 nM of CYP83A1 or CYP83B1 and 50 mM L-cysteine as thiol donor (Bak et al. (2001) Plant Cell. 13:101-111). […] Vmax, Km, and Ks were calculated using SigmaPlot 5.0 (SPSS Inc.). For analysis of CYP83B1 activity in the presence or absence of thiol donors, recombinant CYP83B1 was reconstituted and analyzed as previously described (Bak et al. (2001) Plant Cell. 13:101-111).

[2] = target: T2, CYP83A1 (Arabidopsis thaliana, UniProt P48421); experiment: Reconstitution with oximes, turnover numbers by GC-MS; assay type: biochemical; parameters: made in house; host or cells: yeast WAT11 cells, pYeDP60 vector; microsomes; conditions: CYP83A1 0.5 μM, 1 mM substrate, β-mercaptoethanol thiol donor, 20 min at 28° C.
T2 sequence (P48421 1-502): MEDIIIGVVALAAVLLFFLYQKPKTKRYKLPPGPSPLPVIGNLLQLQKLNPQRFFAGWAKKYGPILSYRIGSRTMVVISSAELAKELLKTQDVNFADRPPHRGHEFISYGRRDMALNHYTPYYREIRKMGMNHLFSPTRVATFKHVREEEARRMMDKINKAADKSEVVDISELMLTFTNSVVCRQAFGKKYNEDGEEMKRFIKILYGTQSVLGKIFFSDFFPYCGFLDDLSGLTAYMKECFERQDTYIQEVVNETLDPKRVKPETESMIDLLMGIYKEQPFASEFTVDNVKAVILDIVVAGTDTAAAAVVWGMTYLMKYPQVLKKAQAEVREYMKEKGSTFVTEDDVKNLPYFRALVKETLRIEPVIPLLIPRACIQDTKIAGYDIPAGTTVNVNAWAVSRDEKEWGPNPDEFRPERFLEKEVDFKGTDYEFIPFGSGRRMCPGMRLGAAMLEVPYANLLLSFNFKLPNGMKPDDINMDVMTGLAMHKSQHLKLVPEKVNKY
Experimental: (§2) Turnover numbers were calculated based on the relative areas under the substrate and product peaks. Silylated substrates and products were identified by their fragmentation pattern in both electron impact mode and chemical ionization mode.
(§3) Reconstitution experiments were also conducted to compare the ability of CYP83A1 and CYP83B1 to metabolize other oximes. The putative substrates tested were p-hydroxyphenylacetaldoxime derived from tyrosine and phenylacetaldoxime derived from phenylalanine. In all studies, β-mercaptoethanol was the thiol donor. […] Conversely, the turnover of p-hydroxyphenylacetaldoxime was higher using CYP83A1 compared to CYP83B 1. Phenylacetaldoxime was identified as a substrate for CYP83A1 as well as for CYP83B1 but the turnover numbers were low (Table 1).

[3] = target: T1, CYP83B1; experiment: as above; assay type: biochemical; parameters: made in house; host or cells: yeast WAT11 cells, pYeDP60 vector; microsomes; conditions: CYP83B1 0.5 μM, 1 mM substrate, β-mercaptoethanol thiol donor, 20 min at 28° C.
Experimental: as §2, §3

[4] = target: T2, CYP83A1; experiment: biochemical; conditions: for Type II spectrum (ligand binding to active site) / Relative affinity for ligand binding, from amplitudes of type II spectra: CYP83A1, 200 μM ligand
From the text: (§4) FIG. 6 is a spectral characterization of CYP83A1 and CYP83B1. […] 1) tryptamine, 2) β-phenylethylamine, 3) tyramine, 4) n-octylamine, 5) 5-OH-tryptamine, 6) 3-OH-tyramine, B) baseline.
(§5) To compensate for ligand absorbance, the experimental data were fitted to a hyperbolic curve using the equation A=Amax*X/(Ks+X)+C*X, where A is the amplitude of the spectra, X the concentration of ligand, and C the contribution from ligand absorbance. The computed regression curve is shown as well as the experimental data points.
as §1
(§6) To characterize the topology of the active sites of […] and CYP83B 1, we have taken advantage of the ability of nitrogen-containing ligands like primary amines to produce type II spectra with cytochrome P450 enzymes by binding to the active site bringing the electron lone pairs of the amine group in close vicinity to the heme iron (Jefcoate C. R. (1978) Methods Enzymol 27:258-279). This gives rise to a characteristic spectrum with a trough around 390 nm and a peak around 425 nm.
(§7) By titrating the amplitude of the type II difference spectra with increasing concentrations of ligand, Ks values were determined for tryptamine and β-phenylethylamine (FIG. 7).

[5] = target: T1, CYP83B1; experiment: biochemical; conditions: for Type II spectrum (ligand binding to active site) / Relative affinity for ligand binding, from amplitudes of type II spectra: CYP83B1, 200 μM ligand
From the text: as §4, §5, §1, §6, §7

[6] = test system: ON=CCc1c[nH]c2ccccc12; experiment: cells, lysate or membranes named; conditions: other: CYP83A1 in yeast microsomes, 2.2 nM enzyme, 50 mM L-cysteine as thiol donor
[7] = target: T1, CYP83B1; parameters: made in house; host or cells: yeast WAT11 cells, pYeDP60 vector; microsomes; conditions: cited from earlier work
[8] = substrate: ON=CCc1c[nH]c2ccccc12; experiment: cells, lysate or membranes named; conditions: other: CYP83B1 in yeast microsomes, 2.2 nM enzyme, 50 mM L-cysteine as thiol donor

ON=CCc1c[nH]c2ccccc12 [indole-3-acetaldoxime]
Fold higher catalytic efficiency (Vmax/Km), CYP83B1 compared to CYP83A1 ([1]; indole-3-acetaldoxime as substrate): 20 fold
Fold difference in Km / affinity, CYP83B1 versus CYP83A1 ([1]; indole-3-acetaldoxime, higher affinity (lower Km) for CYP83B1): 50 fold
Turnover, indole-3-acetaldoxime [2]: 10 min⁻¹
Turnover, indole-3-acetaldoxime [3]: 26 min⁻¹

ON=CCc1ccccc1 [phenylethylacetaldoxime, phenylacetaldoxime]
Turnover phenylethylacetaldoxime [2]: 7.2 min⁻¹
Turnover phenylethylacetaldoxime [3]: 15 min⁻¹

ON=CCc1ccc(O)cc1 [p-hydroxyphenylacetaldoxime]
Turnover p-hydroxyphenylacetaldoxime [2]: 25 min⁻¹
Turnover p-hydroxyphenylacetaldoxime [3]: 9.8 min⁻¹

N#CCc1c[nH]c2ccccc12 [Indole-3-acetonitrile]
Type II spectrum (ligand binding to active site) [4]: did not produce a type II spectrum
Type II spectrum (ligand binding to active site) [5]: did not produce a type II spectrum

CCCCCCCCN [n-octylamine]
Relative affinity for ligand binding, from amplitudes of type II spectra [4]: n-octylamine>>α-phenylethylamine=tryptarine>tyramine
Type II spectrum (ligand binding to active site) [4]: type II spectra were observed
Relative affinity for ligand binding, from amplitudes of type II spectra [5]: tryptamine >>β-phenylethylanine>n-octylamine>tyramine
Type II spectrum (ligand binding to active site) [5]: type II spectra were observed

NCCc1ccccc1 [β-phenylethylamine]
Kd [4]: 390 ± 70 µM
Relative affinity for ligand binding, from amplitudes of type II spectra [4]: n-octylamine>>α-phenylethylamine=tryptarine>tyramine
Type II spectrum (ligand binding to active site) [4]: type II spectra were observed
Kd [5]: 540 ± 180 µM
Relative affinity for ligand binding, from amplitudes of type II spectra [5]: tryptamine >>β-phenylethylanine>n-octylamine>tyramine
Type II spectrum (ligand binding to active site) [5]: type II spectra were observed

CYP83A1 (Arabidopsis thaliana)
Km [6]: 150 ± 15 µM
kcat [6]: 2.33 ± 0.167 s⁻¹

NCCc1c[nH]c2ccc(O)cc12 [5-OH-tryptamine]
Type II spectrum (ligand binding to active site) [4]: abolished binding
Type II spectrum (ligand binding to active site) [5]: abolished binding

NCCc1c[nH]c2ccccc12 [tryptamine]
Kd [4]: 240 ± 180 µM
Relative affinity for ligand binding, from amplitudes of type II spectra [4]: n-octylamine>>α-phenylethylamine=tryptarine>tyramine
Kd [5]: 18 ± 5 µM
Relative affinity for ligand binding, from amplitudes of type II spectra [5]: tryptamine >>β-phenylethylanine>n-octylamine>tyramine
Fold stronger binding to CYP83B1 compared to CYP83A1 ([5]; from Ks values): 13 fold
Fold stronger ligand for CYP83B1 compared to β-phenylethylamine ([5]; from Ks values): 30 fold
Inhibition of metabolism of indole-3-acetaldoxime [7]: inhibits metabolism of indole-3-acetaldoxime

B1: CYP83B1 (Arabidopsis thaliana) (protein)
chain: MDLLLIIAGLVAAAAFFFLRSTTKKSLRLPPGPKGLPIIGNLHQMEKFNPQHFLFRLSKLYGPIFTMKIGGRRLAVISSAELAKELLKTQDLNFTARPLLKGQQTMSYQGRELGFGQYTAYYREMRKMCMVNLFSPNRVASFRPVREEECQRMMDKIYKAADQSGTVDLSELLLSFTNCVVCRQAFGKRYNEYGTEMKRFIDILYETQALLGTLFFSDLFPYFGFLDNLTGLSARLKKAFKELDTYLQELLDETLDPNRPKQETESFIDLLMQIYKDQPFSIKFTHENVKAMILDIVVPGTDTAAAVVVWAMTYLIKYPEAMKKAQDEVRSVIGDKGYVSEEDIPNLPYLKAVIKESLRLEPVIPILLHRETIADAKIGGYDIPAKTIIQVNAWAVSRDTAAWGDNPNEFIPERFMNEHKGVDFKGQDFELLPFGSGRRMCPAMHLGIAMVEIPFANLLYKFDWSLPKGIKPEDIKMDVMTGLAMHKKEHLVLAPTKHI
Km [8]: 3.1 ± 0.4 µM

Source: patent US20050223431A1, “Methods of modulating glucosinolate production in plants” (The Arizona Board of Regents on Behalf of the University of …, priority 2000, published 2005)
